{
  "source": "paper PMC10472371",
  "about": "“Discovery of E2730, a novel selective uncompetitive GAT1 inhibitor, as a candidate for anti‐seizure medication” (Epilepsia Open, 2023)",
  "key": {"[1]": {"target": "T1, rat brain synaptosomal membranes (Rattus norvegicus, UniProt P23978)", "T1 construct": "Synaptosomal membranes were prepared using the whole brain without cerebellum, brainstem, or olfactory bulb; from tissue; host or cells: rat whole brain without cerebellum, brainstem or olfactory bulb; synaptosomal membranes", "assay": "Saturation binding of [3H]E2730 in rat brain synaptosomal membranes", "details": "[3H]E2730, Scatchard plot", "procedure": "Synaptosomal membranes were prepared using the whole brain without cerebellum, brainstem, or olfactory bulb from Sprague Dawley rats (male, 7 weeks old) or human cerebral cortex based on Fuks et al.[10] and Hanada et al.[11] Synaptosomal membranes (0.4 mg protein/tube) were incubated with 9.8–5000 nM [^3H]E2730 for 120 minutes at 4°C. Non‐specific binding was defined as the residual binding observed in the presence of 1 mM unlabeled E2730. […] The filters were washed three times with ice‐cold 50 mM Tris–HCl buffer (pH 7.4) and incubated overnight in a scintillator (PerkinElmer), then the radioactivity was measured by a liquid scintillation counter (PerkinElmer)."}, "[2]": {"system": "Fmr1 KO mice", "assay": "Audiogenic seizures in Fmr1 knockout mice (fragile X syndrome model)", "format": "in vivo", "details": "Mus musculus, oral, 1 hour before audio stimulation, read-out: ED50 (95% CI) for tonic-clonic seizures, audiogenic seizures", "procedure": "Fragile X syndrome (FXS) is the most common single‐gene cause of autism spectrum disorder, typically due to mutations in the FMR1 gene; 10–18% of patients with FXS experience seizures.[8] The Fmr1 knockout (KO) mouse is an established animal model for FXS. E2730 (2.5–300 mg/kg) or vehicle was orally administered to Fmr1 KO mice (male, 20–27 days postnatal; Jackson Laboratory) 1 hour prior to drug evaluation. The mice were placed in a sound‐attenuating acoustic chamber and acclimated for 5 minutes and exposed to an audio stimulation (110 dB, 60‐second duration), and the behavior of the stimulated mice was video recorded and monitored for tonic–clonic seizures."}, "[3]": {"target": "T2, hGAT3 (Homo sapiens, UniProt P48066)", "T2 construct": "expressed in transfected cells; host or cells: HEK293", "T2 sequence (P48066 1-632)": "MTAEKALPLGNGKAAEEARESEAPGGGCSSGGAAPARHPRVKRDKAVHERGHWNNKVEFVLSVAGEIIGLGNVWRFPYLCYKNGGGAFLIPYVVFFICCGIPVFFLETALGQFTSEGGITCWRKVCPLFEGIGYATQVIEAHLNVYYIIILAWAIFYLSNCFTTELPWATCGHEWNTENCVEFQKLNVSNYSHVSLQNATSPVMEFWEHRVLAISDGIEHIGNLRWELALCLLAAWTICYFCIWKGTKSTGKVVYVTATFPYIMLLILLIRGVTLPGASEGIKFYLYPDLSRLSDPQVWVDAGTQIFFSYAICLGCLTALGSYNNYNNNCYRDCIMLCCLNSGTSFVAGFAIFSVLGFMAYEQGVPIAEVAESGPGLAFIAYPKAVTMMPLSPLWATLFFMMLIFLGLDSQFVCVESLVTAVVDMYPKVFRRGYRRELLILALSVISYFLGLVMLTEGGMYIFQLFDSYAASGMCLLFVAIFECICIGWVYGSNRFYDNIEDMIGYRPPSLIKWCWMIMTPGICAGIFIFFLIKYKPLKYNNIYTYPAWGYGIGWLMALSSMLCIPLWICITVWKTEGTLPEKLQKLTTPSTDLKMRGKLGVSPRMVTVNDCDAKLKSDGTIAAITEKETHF", "assay": "[3H]GABA uptake in hGAT3 stably expressing HEK293 cells", "format": "cell-based", "details": "50 μM [3H]GABA", "procedure": "HEK293 cells stably expressing human GAT1 (hGAT1), GAT2 (hGAT2), GAT3 (hGAT3), or betaine/GABA transporter 1 (hBGT‐1) were plated onto 96‐well microtiter plates at a density of 4.0 × 10^4 cells/well in Dulbecco's Modified Eagle's Medium (DMEM, containing 10% fetal bovine serum, 100 units/mL penicillin, 100 μg/mL streptomycin, 1% non‐essential amino acid solution, and 25 mM HEPES) and incubated overnight at 37°C in a 5% CO2 atmosphere. After washing the cells with Hanks’ balanced salt solution (HBSS, containing 140 mg/L CaCl2, 100 mg/L MgCl2, 20 mM HEPES, and 10 mM NaOH), E2730 (0.0128–1000 μM) was added to the plate. Following the addition of 50 μM [^3H]GABA, cells were incubated for 5 minutes at 37°C in a 5% CO2 atmosphere and then washed with cold HBSS. Washed cells were incubated in a scintillator for 1 hour at room temperature, followed by radioactivity measurements using a liquid scintillation counter."}, "[4]": {"system": "amygdala kindling rats", "assay": "Amygdala kindling in rats", "format": "in vivo, rat", "text": "A tripolar electrode was implanted into the basolateral amygdala of Wistar‐Kyoto rats (male, 7 weeks old; Charles River Laboratories Japan, Japan). After at least 5 days of recovery, the amygdala was stimulated using an electronic stimulator at currents starting at 0.04 mA (50 Hz, 1 millisecond monophasic square‐wave pulses, 1‐second duration each) then increasing by 25% to a 30‐second duration until the after‐discharge threshold (ADT) was attained. ADT was defined as the current at which abnormal electroencephalogram and at least Racine's stage‐1 seizure behavior were observed. In the Racine's stage, seizure severity was classified as: 1, mouth and facial movements; 2, head nodding; 3, forelimb clonus; 4, rearing; 5, rearing and falling. From the next day onwards, electrical stimulation at the previously determined ADT was performed once daily in each rat. The rats showing ≥3 consecutive Racine stage‐5 seizures were deemed epileptic and used for drug evaluation. The pre‐ADT (i.e. baseline) seizure threshold of each rat was established prior to drug administration. After >1 hour following the determination of pre‐ADT seizure threshold, E2730 (5–50 mg/kg), levetiracetam (25 mg/kg), or vehicle was orally administered to the rats. One hour after the administration, the post‐ADT seizure threshold of each rat was ascertained, and the ratios of post‐ADT to pre‐ADT readings were analyzed."}, "[5]": {"system": "panel of 86 receptors, transporters, and ion channels", "assay": "Binding panel assay", "details": "tested at 30 and 300 μM", "procedure": "In this binding panel assay, E2730 was tested at 30 and 300 μM."}, "[6]": {"target": "T3, hNav1.2 (Homo sapiens, UniProt Q99250)", "T3 construct": "expressed in transfected cells; host or cells: CHO", "T3 sequence (Q99250 whole entry)": "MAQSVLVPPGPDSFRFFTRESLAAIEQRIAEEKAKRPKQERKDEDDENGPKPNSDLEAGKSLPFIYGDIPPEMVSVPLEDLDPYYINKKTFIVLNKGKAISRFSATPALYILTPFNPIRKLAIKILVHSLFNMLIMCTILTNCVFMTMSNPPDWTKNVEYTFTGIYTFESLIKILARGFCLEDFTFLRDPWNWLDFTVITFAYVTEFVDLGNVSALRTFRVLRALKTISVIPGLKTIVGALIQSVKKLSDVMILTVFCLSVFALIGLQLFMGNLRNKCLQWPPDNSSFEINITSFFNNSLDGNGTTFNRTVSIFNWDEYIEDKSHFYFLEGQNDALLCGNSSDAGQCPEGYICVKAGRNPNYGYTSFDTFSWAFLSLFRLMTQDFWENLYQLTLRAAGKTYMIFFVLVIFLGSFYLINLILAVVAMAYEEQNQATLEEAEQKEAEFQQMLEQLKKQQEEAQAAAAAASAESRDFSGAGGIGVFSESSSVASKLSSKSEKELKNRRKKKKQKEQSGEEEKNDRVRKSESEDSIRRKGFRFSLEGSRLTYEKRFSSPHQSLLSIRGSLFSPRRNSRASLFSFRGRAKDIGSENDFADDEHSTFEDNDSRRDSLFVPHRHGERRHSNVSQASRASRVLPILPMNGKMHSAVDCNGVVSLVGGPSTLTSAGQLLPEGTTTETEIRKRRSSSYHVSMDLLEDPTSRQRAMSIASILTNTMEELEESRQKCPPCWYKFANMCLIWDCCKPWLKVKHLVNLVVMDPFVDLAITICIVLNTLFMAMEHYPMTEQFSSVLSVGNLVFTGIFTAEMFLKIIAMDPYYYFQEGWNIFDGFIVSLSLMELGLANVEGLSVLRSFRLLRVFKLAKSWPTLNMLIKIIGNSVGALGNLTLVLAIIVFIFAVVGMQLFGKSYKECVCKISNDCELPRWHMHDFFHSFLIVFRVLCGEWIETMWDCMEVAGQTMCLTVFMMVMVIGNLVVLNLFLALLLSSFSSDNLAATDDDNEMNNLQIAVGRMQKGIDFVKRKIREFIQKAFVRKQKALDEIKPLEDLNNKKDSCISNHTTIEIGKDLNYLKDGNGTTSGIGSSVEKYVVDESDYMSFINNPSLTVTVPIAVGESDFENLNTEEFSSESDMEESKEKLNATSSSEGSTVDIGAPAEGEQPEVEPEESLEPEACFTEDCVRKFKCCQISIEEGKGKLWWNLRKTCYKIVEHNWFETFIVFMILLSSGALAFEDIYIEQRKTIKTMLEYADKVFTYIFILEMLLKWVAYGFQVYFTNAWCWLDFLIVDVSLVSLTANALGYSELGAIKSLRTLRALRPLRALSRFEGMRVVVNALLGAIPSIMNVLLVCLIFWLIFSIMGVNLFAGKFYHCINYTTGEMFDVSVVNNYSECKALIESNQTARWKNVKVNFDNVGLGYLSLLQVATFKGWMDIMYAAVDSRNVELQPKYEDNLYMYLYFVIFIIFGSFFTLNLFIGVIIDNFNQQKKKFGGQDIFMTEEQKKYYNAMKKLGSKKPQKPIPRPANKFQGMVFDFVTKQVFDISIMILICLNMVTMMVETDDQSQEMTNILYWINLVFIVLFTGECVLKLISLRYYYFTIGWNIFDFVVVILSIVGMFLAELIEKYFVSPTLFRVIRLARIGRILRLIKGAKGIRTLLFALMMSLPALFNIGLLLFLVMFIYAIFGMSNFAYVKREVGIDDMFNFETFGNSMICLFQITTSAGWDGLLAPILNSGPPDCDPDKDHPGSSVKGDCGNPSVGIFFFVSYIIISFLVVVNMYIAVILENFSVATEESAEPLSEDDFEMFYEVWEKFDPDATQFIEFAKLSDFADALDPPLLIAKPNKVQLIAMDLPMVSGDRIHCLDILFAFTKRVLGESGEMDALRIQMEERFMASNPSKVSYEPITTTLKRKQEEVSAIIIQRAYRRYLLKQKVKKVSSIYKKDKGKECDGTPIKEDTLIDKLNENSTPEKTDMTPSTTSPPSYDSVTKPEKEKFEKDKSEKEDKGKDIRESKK", "assay": "Veratridine-induced hNav1.2 activation in CHO cells, membrane potential assay", "format": "cell-based", "details": "up to 100 μM, veratridine 50 μM", "procedure": "Data represent the mean ± SEM of three independent experiments. Effects of E2730 and desipramine (Sigma-Aldrich, MO) on hNav1.2 activity were evaluated in CHO cells stably expressing hNav1.2 using a fluorescent-based membrane potential assay (Molecular Devices, CA). Activation of hNav1.2 was induced by veratridine (50 μM) and the change of fluorescence (excitation wavelength, 480 nm; emission wavelength, 540 nm) was recorded using Fluorescence Drug Screening System 6000 (Hamamatsu Photonics, Japan)."}, "[7]": {"system": "corneal kindling mice", "assay": "Corneal kindling in mice", "format": "in vivo", "details": "Mus musculus; oral, 1 hour before electrical stimulation; read-out: ED50 (95% CI) in corneal kindling mice", "quoted_text": "A corneal kindling mouse model was developed following the method described by Potschka and Löscher.[7] Male C57BL/6N mice (5 weeks old; Charles River Laboratories Japan, Japan) were stimulated using corneal electrodes (4 mA, 50 Hz, 3‐second duration each) twice daily for 10 consecutive days, and stimulated mice were observed and rated based on the Racine's scale (0, no seizure; 1, mild facial clonus and eye blinking; 2, severe facial clonus, head nodding, or chewing; 3, unilateral or alternating forelimb clonus; 4, bilateral forelimb clonus and rearing; 5, bilateral forelimb clonus with rearing and falling). Mice with scores ≥3 were deemed epileptic, whereas mice with scores <3 were deemed non‐epileptic. Mice rated 4 or 5 (i.e. fully kindled mice) were used for drug evaluation."}},
  "note": "“Also recorded” adds a separate entry of the source.",
  "data": [
    {"molecule": "NS(=O)(=O)N[C@H]1c2c(F)cc(F)cc2CC1(F)F", "note": "[E2730]", "values": [
      {"measurement": "Bmax", "setting": "[1]", "value": 3419, "unit": "fmol/mg protein"},
      {"measurement": "Kd", "setting": "[1]", "value": 0.553, "unit": "µM"},
      {"measurement": "ED50", "setting": "[2]", "value": 17.1, "unit": "mg/kg"},
      {"measurement": "IC50", "setting": "[3]", "value": "> 1000", "unit": "µM"},
      {"measurement": "post-ADT/pre-ADT ratio", "setting": "[4]; E2730 10 mg/kg oral, 1 hour after administration", "value": 129, "unit": "%"},
      {"measurement": "post-ADT/pre-ADT ratio", "setting": "[4]; E2730 20 mg/kg oral", "value": 159, "unit": "%"},
      {"measurement": "post-ADT/pre-ADT ratio", "setting": "[4]; E2730 50 mg/kg oral", "value": 191, "unit": "%"},
      {"measurement": "Minimum effective dose, amygdala kindling (rat)", "setting": "[4]; oral, footnote a: minimum effective dose", "value": 10, "unit": "mg/kg"},
      {"measurement": "binding in panel assay", "setting": "[5]", "value": "no significant binding"},
      {"measurement": "effect on hNav1.2 activation", "setting": "[6]", "value": "did not inhibit; also recorded: did not directly affect"},
      {"measurement": "ED50", "setting": "[7]", "value": 7.9, "unit": "mg/kg"}
    ]}
  ]
}
